Columns and labels:
Assay type in all cases: physicochemical
[1] = Screening of antioxidant (tolterodine decomposition in H2O2 solution); conditions: 25° C., 100 rpm, 2.5 days
Protocol: (§1) [Analytical Method] • Test solution: tolterodine (−0.5 mg/mL) • Mobile phase: 45:55 mixture solution of ammonium dihydrogen phosphate and methanol, pH 7.0 • HPLC condition: detector 220 nm, column ODS3 C-18
Tolterodine free base (500 mg) was mixed with ethanol (50 mL) in a 100 mL flask and 0.3% H2O2 solution was added thereto to a final volume of 100 mL.
Antioxidant, weighed 10 mg each, was added into two glass bottles. One bottle contained tolterodine and the antioxidant, while the other bottle contained only the antioxidant, which was prepared to exclude the peaks resulting from the decomposition of the antioxidant by H2O2.
Tolterodine solution (2 mL) or a 1:1 mixture solution of 0.3% H2O2 aqueous solution and ethanol (2 mL) were added to the two glass bottles containing the antioxidant. The bottles were agitated at 100 rpm and 25° C. for 2.5 days.

[2] = Stress decomposition test of tolterodine under acidic/basic/oxidizing conditions; conditions: for Total decomposed substances (peak area ratio of decomposed substances of tolterodine): 24 hours, HPLC
Protocol: Tolterodine free base (20 mg) was added respectively to three 100 mL flasks. Each of the above flasks was then added with 0.1 M HCl (5 mL), 0.1 M NaOH (5 mL) and 0.3% H2O2 solution (5 mL), respectively, added with methanol to a final volume of 20 mL and was subjected to ultrasonic extraction for 10 minutes.
Each sample was allowed to stand at room temperature for 24 hours and decomposed substances of tolterodine were quantitated by HPLC as follows.
as §1

[3] = Stress decomposition test of tolterodine under heat conditions
Protocol: as §1
Tolterodine free base (25-30 mg) was weighed and added into four glass bottles which were then capped with plugs. Three of the glass bottles were placed in an oven preheated at 120° C. At 10 minutes, 20 minutes and 30 minutes, each glass bottle was taken out from the oven and was allowed to cool enough at room temperature. After adding methanol (100 mL) to the four glass bottles followed by ultrasonic extraction for 10 minutes, decomposed substances of tolterodine were quantitated by HPLC as in Reference Example 1.

[4] = tolterodine in ethanol/0.3% H2O2 with 10 mg of the named antioxidant

| SMILES | Total decomposed substances (peak area ratio of decomposed substances of tolterodine) [1, 4] | also measured |
| --- | --- | --- |
| O=C(O)CC(O)C(=O)O (racemic) [d,l-Malic acid] | 1.39% |  |
| CC(=O)Oc1c(C)c(C)c2c(c1C)CC[C@@](C)(CCC[C@H](C)CCC[C@H](C)CCCC(C)C)O2 [(+)-α-Tocopherol acetate] | 23.56% |  |
| COc1ccc(O)c(C(C)(C)C)c1 [Butylated hydroxyanisole (BHA), Butylated hydroxyanisole] | 23.87% |  |
| Cc1cc(C(C)(C)C)c(O)c(C(C)(C)C)c1 [Butylated hydroxytoluene (BHT), Butylated hydroxytoluene] | 18.82% |  |
| O=C(O)CC(O)(CC(=O)O)C(=O)O [Citric acid] | 1.46% |  |
| CCOC(=O)c1cc(O)c(O)c(O)c1 [Ethyl gallate] | 13.00% |  |
| O=C([O-])CN(CCN(CC(=O)[O-])CC(=O)[O-])CC(=O)[O-].[Ca+2].[Na+].[Na+] [Ethylenediaminetetraacetic acid calcium disodium salt] | 29.69% |  |
| CCCCCCCCCCCCOC(=O)c1cc(O)c(O)c(O)c1 [Lauryl gallate] | 19.94% |  |
| O=S([O-])[O-].[Na+].[Na+] [Sodium sulfite] | 5.67% |  |
| O=S([O-])([O-])=S.[Na+].[Na+] [Sodium thiosulfate] | 1.94% |  |
| Cc1c(C)c2c(c(C)c1O)CCC(C)(CCCC(C)CCCC(C)CCCC(C)C)O2 (stereo not drawn) [d,l-α-Tocopherol] | 20.29% |  |
| CCCCCCCCCCCCCCCC(=O)OC[C@H](O)[C@H]1OC(=O)C(O)=C1O [l-Ascorbic acid 6-palmitate] | 1.94% |  |
| O=C1O[C@H]([C@@H](O)CO)C(O)=C1O [l-Ascorbic acid] | 1.21% |  |
| Cl.N[C@@H](CS)C(=O)O [l-Cysteine HCl] |  | Total decomposed substances (peak area ratio of decomposed substances of tolterodine) ([1]; tolterodine in ethanol/0.3% H2O2 with 10 mg of the named antioxidant, HCl): 1.70% |
| N[C@@H](CCC(=O)O)C(=O)O [l-Glutamic acid] | 1.52% |  |
| O=C(O)C(O)C(O)C(=O)O (stereo not drawn) [l-Tartaric acid] | 1.44% |  |
| CCCCCCCCOC(=O)c1cc(O)c(O)c(O)c1 [n-Octyl gallate] | 15.97% |  |
| Cc1ccc(O)c([C@H](CCN(C(C)C)C(C)C)c2ccccc2)c1 [tolterodine] |  | Total decomposed substances (peak area ratio of decomposed substances of tolterodine) ([2]; 0.1M HCl, room temperature): 0.59%; Total decomposed substances (peak area ratio of decomposed substances of tolterodine) ([2]; 0.1M NaOH, room temperature): 0.83%; Total decomposed substances (peak area ratio of decomposed substances of tolterodine) ([2]; 0.3% H2O2, room temperature): 4.74%; Production of decomposed substances of tolterodine under stress conditions (in words) ([2]; harsh oxidizing condition, compared with acid, base and heat): Much of decomposed substances of tolterodine were produced; Total decomposed substances (peak area ratio of decomposed substances of tolterodine) ([3]; 120° C./0 min): 0.45%; Total decomposed substances (peak area ratio of decomposed substances of tolterodine) ([3]; 120° C./10 min): 0.59%; Total decomposed substances (peak area ratio of decomposed substances of tolterodine) ([3]; 120° C./20 min): 0.63%; Total decomposed substances (peak area ratio of decomposed substances of tolterodine) ([3]; 120° C./30 min): 0.78%; Total decomposed substances (peak area ratio of decomposed substances of tolterodine) ([1]; tolterodine in ethanol/0.3% H2O2, antioxidant: None): 26.08% |

Source: patent publication US9155715B2, “Transdermal composition comprising tolterodine” (SK Chemicals Co., Ltd., priority 2009, dated 2015)
